# Patent US12331096B2, “Binding domain mapping and compounds, compositions, complexes, methods, and kits related thereto” (GEORGE MASON RESEARCH FOUNDATION, INC., priority 2019, dated 2025)
# Where “and” joins values, the source holds several entries; their conditions need not be identical. Equal values may be shown once. Entries after “also recorded” stand apart in the source; their conditions may differ. Read-outs that look alike come from different tables or passages of the source. Where a SMILES comes first, the peptide text is derived from it. Bridges are numbered along the chain shown (N, C = ends).
# Tests used:
# [1] = Peptide solubility to 1 mM stock; conditions: solvent additive for 1 mM stock
# [2] = Solubility of azo coupling products synthesized in PBS; format: physicochemical; conditions: synthesized at room temperature in PBS, pH 7.4
# Protocol: Dyes stocks were prepared to 1 mg/mL final concentrations. Synthesis was conducted as follows: Fast Dyes were mixed in 1× Dubelcco's PBS with an excess of coupling agent (3-fold molar concentration of coupling agent to fast dye) and vortexed. Reactions were conducted at room temperature and proceeded in the first 5 minutes of mixing with evident color change. Dye stocks were allowed to incubate at room temperature for one week prior to use. Dyes were used without further purification and were diluted prior to use in protein painting. Dye reagents were vortexed before each use, and stable for >6 months at room temperature. Reactions were monitored by reverse phase C18 TLC (mobile phase of 60% methanol, 40% water) to determine number of product bands. […] The two major product bands were separated via reverse-phase flash column chromatography conducted essentially as described previously using a 20 mm column, stationary phase of COSMOSIL C18-OPN reverse phase resin (Nacalai USA, Catalog number 37842-66), and mobile phase of 60% methanol or 30% acetonitrile. Fractions containing individual bands were identified via reverse-phase TLC and were pooled and dried. Pure samples by TLC were analyzed by NMR to confirm structure of each major product.
# Two different fast dyes were used to synthesize new dye candidates. Fast Blue B was chosen to synthesize new diazo dyes, as it is structurally similar to the core of TB, while Fast Red TR was chosen to synthesize new halogenated small dyes. Four diverse coupling agents, 4-Amino-1-naphthalenesulfonic Acid or naphthionic acid, 4-Amino-5-hydroxy-2,7-naphthalenedisulfonic acid or H-acid, 7-Amino-1,3-naphthalenedisulfonic acid or Amino G Acid, and 2-napthol were chosen to evaluate the role of sulfonates on specific binding. […] The remaining 5 candidate dyes, Fast Blue B+Naphthionic Acid (FBBNA), Fast Blue B+H-acid (FBBHA), Fast Red TR+Naphthionic Acid (FRNA), Fast Red TR+H-acid (FRHA), and Fast Red TR+Amino G Acid (FRAGA), were all evaluated for their specific binding with respect to thyroglobulin (see Table 3).
# Thyroglobulin = molecular target: T1, Thyroglobulin (Bos taurus, UniProt P01267); assay: Specific binding of dye to thyroglobulin (gel filtration, UV-Vis); conditions: for Specific binding to thyroglobulin at equilibrium: Vmax of Michaelis-Menten fit, no CuSO4
# T1 construct: purchased Sigma Aldrich 9010-34-8
# Protocol: (§1) To determine specific binding of each candidate dye, thyroglobulin was primarily used as a model protein, because its large surface area facilitated more molecules of dye binding per protein, and thus higher signal to noise ratios versus smaller proteins. Candidate dyes were examined on a UV-2501PC UV-Vis spectrometer to determine Amax values. Standard curves were prepared for quantification of molecules of dye; dyes were eliminated from consideration if sensitivity of detection was not greater than 10 μM in solution. Thyroglobulin (1-5 μM) was mixed with 100-fold molar excess of candidate dye dissolved in PBS and allowed to associate between 15 seconds to 2 hours at room temperature. After association, 50 μL of the dye-protein mixtures were passed through a mini Quick Spin Oligo Column (Sephadex G-25 resin, Roche) and centrifugated at 1000× g for 1 min to separate unbound dye from the protein-dye complex. The collected flow-through was examined with UV-Vis spectroscopy, and quantity of dye in the flow-through was calculated using the previously developed standard curve for the dye. Specific Binding was defined as [Paint Molecules Bound]/[Protein]. A plot of specific binding versus time was fit with the Michaelis-Menton equation in GraphPad Prism 6 as a model to determine association kinetics and maximum dye binding, where Vmax represents the maximum amount of dye molecules that bind to the protein at equilibrium. All curves are fit to data from two independent experiments. Specific binding of dye candidates to lysozyme was conducted similarly, with the change that lysozyme (2-10 μM) was mixed with 50-fold molar excess of dye candidate dissolved in PBS and allowed to associate for the indicated time points.
# Lysozyme = molecular target: T2, Lysozyme (Gallus gallus, UniProt P00698); assay: Specific binding of dye to lysozyme
# T2 construct: purchased Sigma Aldrich 12650-88-3
# Protocol: as §1
# bovine serum albumin = bovine serum albumin (Bos taurus, UniProt P02769); assay: Circular dichroism spectroscopy of BSA with dye, urea denaturation
# Protocol: Circular dichroism spectroscopy was conducted using bovine serum albumin on a Jasco J-1500 CD spectrometer from 190-350 nm using a 1 mm cuvette. BSA stock solutions were prepared to 2 mg/mL from lyophilized protein in sterile-filtered 10 mM phosphate buffer, pH 7.0 and centrifuged at 16,000×g to remove particulates. Concentration was determined via A280 using an extinction coefficient of 43,824 M^−1 cm^−1 for BSA. Stocks were stored at −80° C. and diluted to the appropriate concentration in sterile-filtered MilliQ water for each experiment. Final concentration of BSA in each sample was 2 μM (0.12 mg/mL). Samples were incubated for 10 minutes with dye at a molar ratio equal to the specific binding of the molecule to the protein (i.e. 18 μM of FBBNA for 1 μM of BSA). Controls were incubated with equivolume amounts of MilliQ water in place of dye. […] Helical content of BSA spectra was determined using the online server DICHROWEB (Whitmore, L., and Wallace, B. A., “Protein secondary structure analyses from circular dichroism spectroscopy: methods and reference databases.” Biopolymers. 89, 392-400, 2008; Whitmore, L., and Wallace, B. A., “DICHROWEB, an online server for protein secondary structure analyses from circular dichroism spectroscopic data.” Nucleic Acids Res. 32, W668-673, 2004) to confirm native structure.
# T2 sequence (P00698 19-147): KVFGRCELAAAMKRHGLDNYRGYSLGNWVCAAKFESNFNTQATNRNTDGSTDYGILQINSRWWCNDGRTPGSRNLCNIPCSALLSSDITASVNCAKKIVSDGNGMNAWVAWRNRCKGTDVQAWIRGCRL
# T1 sequence (P01267 20-2769): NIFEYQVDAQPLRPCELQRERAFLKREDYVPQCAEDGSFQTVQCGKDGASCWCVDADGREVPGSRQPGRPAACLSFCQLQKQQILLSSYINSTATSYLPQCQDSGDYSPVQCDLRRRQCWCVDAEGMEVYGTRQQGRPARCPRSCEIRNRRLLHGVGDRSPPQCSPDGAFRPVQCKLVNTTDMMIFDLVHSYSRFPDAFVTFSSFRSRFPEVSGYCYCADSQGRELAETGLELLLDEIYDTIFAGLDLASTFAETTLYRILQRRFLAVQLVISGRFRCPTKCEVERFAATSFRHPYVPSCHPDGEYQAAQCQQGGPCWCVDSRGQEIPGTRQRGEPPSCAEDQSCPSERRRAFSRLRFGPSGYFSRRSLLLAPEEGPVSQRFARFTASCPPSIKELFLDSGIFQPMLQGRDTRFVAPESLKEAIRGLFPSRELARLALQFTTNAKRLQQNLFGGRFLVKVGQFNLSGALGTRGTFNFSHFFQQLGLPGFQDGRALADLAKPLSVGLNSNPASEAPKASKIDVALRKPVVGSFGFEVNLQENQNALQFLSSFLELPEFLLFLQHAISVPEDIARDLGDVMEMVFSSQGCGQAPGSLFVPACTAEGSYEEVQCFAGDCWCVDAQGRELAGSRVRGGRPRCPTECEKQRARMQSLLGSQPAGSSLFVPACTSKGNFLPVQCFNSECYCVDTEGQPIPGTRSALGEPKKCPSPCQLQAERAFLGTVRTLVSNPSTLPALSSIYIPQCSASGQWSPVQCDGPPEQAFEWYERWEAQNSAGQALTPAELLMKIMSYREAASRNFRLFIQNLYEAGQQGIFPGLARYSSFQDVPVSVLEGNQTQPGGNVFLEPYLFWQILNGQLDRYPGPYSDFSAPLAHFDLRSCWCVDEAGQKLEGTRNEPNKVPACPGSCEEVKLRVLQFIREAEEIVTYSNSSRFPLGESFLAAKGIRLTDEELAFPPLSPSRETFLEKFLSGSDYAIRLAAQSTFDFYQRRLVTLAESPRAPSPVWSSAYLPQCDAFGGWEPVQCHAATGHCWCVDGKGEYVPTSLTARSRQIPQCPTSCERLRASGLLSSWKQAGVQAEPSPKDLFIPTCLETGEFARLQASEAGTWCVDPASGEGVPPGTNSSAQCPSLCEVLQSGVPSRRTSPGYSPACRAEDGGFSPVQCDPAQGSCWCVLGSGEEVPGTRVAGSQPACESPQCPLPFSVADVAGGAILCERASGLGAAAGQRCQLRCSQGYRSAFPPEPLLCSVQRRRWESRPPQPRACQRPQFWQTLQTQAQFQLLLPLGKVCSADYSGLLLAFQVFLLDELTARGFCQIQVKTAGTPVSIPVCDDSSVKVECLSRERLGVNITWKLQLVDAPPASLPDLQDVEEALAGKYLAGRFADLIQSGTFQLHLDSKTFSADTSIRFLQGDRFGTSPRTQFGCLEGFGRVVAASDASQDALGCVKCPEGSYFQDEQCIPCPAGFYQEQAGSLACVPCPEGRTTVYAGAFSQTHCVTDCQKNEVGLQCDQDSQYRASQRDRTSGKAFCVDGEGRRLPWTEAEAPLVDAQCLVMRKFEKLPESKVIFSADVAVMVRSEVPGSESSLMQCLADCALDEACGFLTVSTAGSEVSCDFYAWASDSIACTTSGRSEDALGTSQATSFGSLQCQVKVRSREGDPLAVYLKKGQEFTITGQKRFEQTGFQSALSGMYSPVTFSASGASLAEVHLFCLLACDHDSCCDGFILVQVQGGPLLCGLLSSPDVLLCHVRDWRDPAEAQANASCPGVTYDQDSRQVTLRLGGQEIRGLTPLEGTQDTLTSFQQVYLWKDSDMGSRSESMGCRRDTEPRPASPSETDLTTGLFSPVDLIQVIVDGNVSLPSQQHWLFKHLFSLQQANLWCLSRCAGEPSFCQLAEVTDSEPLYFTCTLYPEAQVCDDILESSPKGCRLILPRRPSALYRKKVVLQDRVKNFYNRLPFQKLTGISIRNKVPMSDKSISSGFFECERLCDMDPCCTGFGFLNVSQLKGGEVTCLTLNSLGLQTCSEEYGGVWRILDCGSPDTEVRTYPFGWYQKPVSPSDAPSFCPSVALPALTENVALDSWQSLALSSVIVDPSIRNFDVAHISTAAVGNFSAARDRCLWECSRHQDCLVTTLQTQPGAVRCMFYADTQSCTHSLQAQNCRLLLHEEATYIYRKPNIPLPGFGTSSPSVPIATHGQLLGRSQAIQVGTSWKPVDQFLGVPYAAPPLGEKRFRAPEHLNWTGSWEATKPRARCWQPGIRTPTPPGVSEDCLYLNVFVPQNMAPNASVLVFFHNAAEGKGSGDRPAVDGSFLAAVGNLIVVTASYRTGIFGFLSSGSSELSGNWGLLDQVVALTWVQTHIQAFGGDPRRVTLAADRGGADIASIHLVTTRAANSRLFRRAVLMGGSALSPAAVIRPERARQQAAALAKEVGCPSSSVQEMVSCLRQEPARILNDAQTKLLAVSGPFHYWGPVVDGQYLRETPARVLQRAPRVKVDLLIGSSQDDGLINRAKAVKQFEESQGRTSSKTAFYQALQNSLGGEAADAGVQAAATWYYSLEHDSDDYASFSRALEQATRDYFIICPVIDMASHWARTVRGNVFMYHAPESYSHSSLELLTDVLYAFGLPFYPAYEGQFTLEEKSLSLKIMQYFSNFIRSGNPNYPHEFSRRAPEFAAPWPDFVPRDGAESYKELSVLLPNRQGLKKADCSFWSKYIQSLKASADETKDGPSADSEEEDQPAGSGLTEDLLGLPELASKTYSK
# Chain of bovine serum albumin (P02769 25-607): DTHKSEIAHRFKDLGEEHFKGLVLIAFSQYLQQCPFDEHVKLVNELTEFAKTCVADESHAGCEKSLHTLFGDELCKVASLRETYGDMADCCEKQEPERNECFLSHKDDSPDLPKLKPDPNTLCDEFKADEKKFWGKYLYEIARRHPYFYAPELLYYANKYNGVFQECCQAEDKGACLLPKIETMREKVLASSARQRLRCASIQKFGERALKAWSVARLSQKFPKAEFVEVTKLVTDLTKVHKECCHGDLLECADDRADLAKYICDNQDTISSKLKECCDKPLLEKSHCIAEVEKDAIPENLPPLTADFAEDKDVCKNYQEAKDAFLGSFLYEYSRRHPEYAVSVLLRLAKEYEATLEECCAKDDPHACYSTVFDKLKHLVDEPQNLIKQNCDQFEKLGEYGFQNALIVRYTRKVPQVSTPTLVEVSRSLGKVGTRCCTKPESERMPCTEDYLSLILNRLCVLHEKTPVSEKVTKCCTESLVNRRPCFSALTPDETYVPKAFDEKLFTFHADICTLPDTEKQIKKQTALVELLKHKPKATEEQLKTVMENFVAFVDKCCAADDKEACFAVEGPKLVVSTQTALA
molecule,measurement,setting,value
CC[C@H](C)[C@H](NC(=O)[C@H](CCSC)NC(=O)[C@H](CS)NC(=O)[C@H](CCCNC(=N)N)NC(=O)[C@@H](N)Cc1ccc(O)cc1)C(=O)N[C@@H](CO)C(=O)N[C@@H](Cc1ccc(O)cc1)C(=O)NCC(=O)NCC(=O)N[C@@H](C)C(=O)N[C@@H](CC(=O)O)C(=O)N[C@@H](Cc1ccc(O)cc1)C(=O)N[C@@H](CCCCN)C(=O)N[C@@H](CCCNC(=N)N)C(=O)N[C@H](C(=O)N[C@H](C(=O)N[C@H](C(=O)O)C(C)C)[C@@H](C)O)[C@@H](C)CC [Peptide 1],Solubility (to 1 mM),[1],"60% CH3COOH, and 14% CH3CN"
CC[C@H](C)[C@@H]1NC(=O)[C@H](CCSC)NC(=O)[C@H](C)NC(=O)[C@H](CCCNC(=N)N)NC(=O)[C@H](Cc2ccc(O)cc2)NC(=O)[C@@H](N)CSSC[C@@H](C(=O)O)NC(=O)[C@H]([C@@H](C)O)NC(=O)[C@H]([C@@H](C)CC)NC(=O)[C@H](CCCNC(=N)N)NC(=O)[C@H](CCCCN)NC(=O)[C@H](Cc2ccc(O)cc2)NC(=O)[C@H](CC(=O)O)NC(=O)[C@H](C)NC(=O)CNC(=O)CNC(=O)[C@H](Cc2ccc(O)cc2)NC(=O)[C@H](CO)NC1=O [Peptide 2] (H-CYRAMISYGGADYKRITC-OH; disulfide 1-18),Solubility (to 1 mM),[1],40% CH3COOH
COc1cc(-c2ccc(N=Nc3c(O)ccc4ccccc34)c(OC)c2)ccc1N=Nc1c(O)ccc2ccccc12 [FBB2N],Solubility of dye product,[2],FBB2N: Dark Blue Pigment Insoluble
Cc1cc(Cl)ccc1N=Nc1cc(S(=O)(=O)O)c2ccccc2c1N [FRNA],Binding to thyroglobulin (in words),Thyroglobulin,"None of the Fast Red TR-based dyes including FRNA, FRHA, and FRAGA showed any significant binding"
same,Specific binding to thyroglobulin,"Thyroglobulin; candidate dyes, Tables 3 and 4",No binding
same,Solubility of dye product,[2],Soluble
Cc1cc(Cl)ccc1N=Nc1c(O)ccc2ccccc12 [FR2N],Solubility of dye product,[2],FR2N: Bright Orange Pigment Insoluble
Cc1cc(-c2ccc(/N=N/c3c(S(=O)(=O)O)cc4cc(S(=O)(=O)O)cc(N)c4c3O)c(C)c2)ccc1/N=N/c1c(S(=O)(=O)O)cc2cc(S(=O)(=O)O)cc(N)c2c1O [TB],Binding to thyroglobulin (in words),Thyroglobulin,least specific binding
same,Specific binding to thyroglobulin at equilibrium,Thyroglobulin,3 molecules
same,Binding to lysozyme (in words),Lysozyme,unable to bind
same,Binding to lysozyme (in words),Lysozyme; listed as Trypan Blue,not to lysozyme
"sodium 4-(4-(benzyl-et-amino)-ph-azo)-2,5-di-cl-benzenesulphonate [AO50]",Specific binding to thyroglobulin at equilibrium,Thyroglobulin,15 molecules
same,Effect of dye on native secondary structure of BSA (CD),bovine serum albumin; 10 min incubation with dye,does not change
same,Denaturation of BSA by urea in the presence of dye (CD),"bovine serum albumin; urea 2M, 4M, 6M (FBBNA), 4M urea (AO50, combination)",attenuated; also recorded: partially stabilize
same,Binding to lysozyme (in words),Lysozyme,able to bind
same,Specific binding to lysozyme at equilibrium,Lysozyme; Vmax of Michaelis-Menten fit,1 molecule
